≈ marks a conversion by molar mass, not a printed value.
Key:
[1] = tested on: E. coli 77 CMY-2-positive; test: checkerboard microdilution, antibiotic plus tested agent; type: cell-based, Escherichia coli
In short: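 β-lactam 1–64 mg/L × agent/PBA 4–16 mg/L checkerboard; meropenem vs carbapenemase producers, ceftazidime vs AmpC producer; imipenem, ertapenem added for selected agents. Readout: combination MICs, FICI (average and lowest); off-scale MICs taken as next doubling.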

[2] = tested on: K. pneumoniae ATCC BAA 1705 KPC-2-positive; test: combination disc test CDT-KPC; type: cell-based; conditions: Klebsiella pneumoniae, BAA1705, read-out: Diameter of inhibition zone, MEM-10 disc with agent; for zone of inhibition at 100 µg/disc: agent 0.1 mg per disc
E. faecium ATCC 6057 = test: direct antimicrobial activity (disc-diffusion, MIC, MBC); type: cell-based; conditions: Enterococcus faecium, ATCC6057; for zone of inhibition at 0.4 mg/disc: 0.4 mg per disc, 9 mm disc (linezolid 0.03 mg, 6 mm disc), - no zone, read-out: Diameter of inhibition zone
In short: (§1)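 Disc-diffusion, MIC, MBC (bacteria) and MFC (yeasts) were determined per EUCAST and CLSI recommendations. Diboronic acids were dissolved in DMSO and applied at 0.4 mg per disc for diffusion. References: nitrofurantoin (Gram-negative rods), linezolid (Gram-positive), fluconazole (fungi).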

[3] = tested on: S. epidermidis ATCC 12228; test: as above; type: cell-based; conditions: Staphylococcus epidermidis, ATCC12228; for zone of inhibition at 0.4 mg/disc: 0.4 mg per disc, 9 mm disc (linezolid 0.03 mg, 6 mm disc), - no zone, read-out: Diameter of inhibition zone
In short: as §1

S. aureus ATCC 6538P = test: as above; type: cell-based; conditions: Staphylococcus aureus, ATCC6538P; for zone of inhibition at 0.4 mg/disc: 0.4 mg per disc, 9 mm disc (linezolid 0.03 mg, 6 mm disc), - no zone, read-out: Diameter of inhibition zone
In short: as §1

E. faecalis ATCC 29212 = test: as above; type: cell-based; conditions: Enterococcus faecalis, ATCC29212; for zone of inhibition at 0.4 mg/disc: 0.4 mg per disc, 9 mm disc (linezolid 0.03 mg, 6 mm disc), - no zone, read-out: Diameter of inhibition zone
In short: as §1

[4] = tested on: S. aureus ATCC 43300 MRSA; test: as above; type: cell-based; conditions: Staphylococcus aureus; for zone of inhibition at 0.4 mg/disc: 0.4 mg per disc, 9 mm disc (linezolid 0.03 mg, 6 mm disc), - no zone, read-out: Diameter of inhibition zone
In short: as §1

[5] = tested on: K. pneumoniae ATCC 700603 ESBL-positive; test: combination disc test CDT-ESBL; type: cell-based; conditions: Klebsiella pneumoniae, ATCC700603, read-out: Diameter of inhibition zone, CAZ-30 disc with agent; for zone of inhibition at 100 µg/disc: agent 0.1 mg per disc
[6] = MTT-based viability assay; type: cell-based; conditions: human, MRC-5 human fibroblasts, 72 h, read-out: Viability of MRC-5 cells (% of viable cells ± SD)
In short: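 MRC-5 human fibroblasts grown in MEME with 10% FBS at 37 °C, 5% CO2, tested by MTT with absorbance read at 570 nm. Viability given as percent of untreated control cells, in triplicate.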

[7] = tested on: P. aeruginosa MUW 700 cAmpC-positive; test: checkerboard microdilution, antibiotic plus tested agent; type: cell-based, Pseudomonas aeruginosa
In short: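 Read-out is the antibiotic MIC with agent present, plus FICI = combined/alone MIC ratios summed for both partners. Meropenem pairs served for carbapenemase strains and ceftazidime pairs for the AmpC strain. Agent or PBA was tested at 4–16 mg/L.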

B. subtilis ATCC 6633 = test: direct antimicrobial activity (disc-diffusion); type: cell-based; conditions: Bacillus subtilis, ATCC6633; 0.4 mg per disc, 9 mm disc (linezolid 0.03 mg, 6 mm disc); - no zone; read-out: Diameter of inhibition zone
In short: as §1

C. krusei ATCC 6258 = test: antifungal activity (disc-diffusion, MIC, MFC); type: cell-based, Candida krusei; conditions: Pichia kudriavzevii, ATCC6258; for MIC: fluconazole by Etest
In short: as §1

[8] = tested on: K. pneumoniae ATCC BAA-1705 KPC-2(+); test: MIC of tested agent alone, microdilution; type: cell-based; conditions: Klebsiella pneumoniae, ATCCBAA1705; read-out: MIC of agent alone
In short: (§2)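 Broth microdilution checkerboard: β-lactam in seven two-fold dilutions (1–64 mg/L) against tested agent or PBA in three two-fold dilutions (4–16 mg/L). Antibiotic MICs were read at each agent level, with agent-alone MICs run in parallel by microdilution.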

E. coli 76 KPC-2(+) = test: MIC of tested agent alone, microdilution; type: cell-based; conditions: Escherichia coli; read-out: MIC of agent alone
In short: as §2

[9] = tested on: P. aeruginosa MUW 700 AmpC(+); test: MIC of tested agent alone, microdilution; type: cell-based; conditions: Pseudomonas aeruginosa; read-out: MIC of agent alone
In short: as §2

[10] = tested on: K. pneumoniae 83 KPC-3(+), CTX-M-3(+); test: MIC of tested agent alone, microdilution; type: cell-based; conditions: Klebsiella pneumoniae; read-out: MIC of agent alone
In short: as §2

E. coli 77 CMY-2(+) = test: MIC of tested agent alone, microdilution; type: cell-based; conditions: Escherichia coli; read-out: MIC of agent alone
In short: as §2

[11] = tested on: K. pneumoniae 81 KPC-3(+); test: MIC of tested agent alone, microdilution; type: cell-based; conditions: Klebsiella pneumoniae; read-out: MIC of agent alone
In short: as §2

[12] = tested on: P. aeruginosa MUW 700 cAmpC-positive; test: combination disc test CDT-AmpC; type: cell-based; conditions: Pseudomonas aeruginosa, read-out: Diameter of inhibition zone, CAZ-30 disc with agent; for zone of inhibition at 100 µg/disc: agent 0.1 mg per disc

| SMILES | Average FICI with ceftazidime [1] | The lowest FICI with ceftazidime [1] | MIC (E. faecium ATCC 6057) [µg/mL] | MIC [3] [µg/mL] | zone of inhibition at 0.4 mg/disc [3] [mm] | MIC (S. aureus ATCC 6538P) [µg/mL] | zone of inhibition at 0.4 mg/disc (S. aureus ATCC 6538P) [mm] | MIC (E. faecalis ATCC 29212) [µg/mL] | MIC [4] [µg/mL] | viability at 72 h, 12.5 mg/L [6] [%] | viability at 72 h, 25 mg/L [6] [%] | viability at 72 h, 50 mg/L [6] [%] | Average FICI with ceftazidime [7] | Interpretation of the average FICI with ceftazidime [7] | Interpretation of the lowest FICI with ceftazidime [7] | The lowest FICI with ceftazidime [7] | zone of inhibition at 0.4 mg/disc (B. subtilis ATCC 6633) [mm] | MIC (C. krusei ATCC 6258) [µg/mL] | MIC [8] [µg/mL] | MIC (E. coli 76 KPC-2(+)) [µg/mL] | further results |
| --- | --- | --- | --- | --- | --- | --- | --- | --- | --- | --- | --- | --- | --- | --- | --- | --- | --- | --- | --- | --- | --- |
| OB(O)c1ccc(B(O)O)c(B(O)O)c1 [4b, benzene-1,2,4-triboronic] | 0.43 | 0.27 | 200 (≈ 954 µM) | 200 (≈ 954 µM) | 20 | 25 (≈ 119 µM) | 20 | 200 (≈ 954 µM) | 200 (≈ 954 µM) | 114 ± 1.8 | 106.4 ± 0.1 | 97.3 ± 13.6 | 0.30 | S (FICI ≤ 0.5, synergy) | S (FICI ≤ 0.5, synergy) | 0.15 | 18 | > 400 | > 400 | > 400 | zone of inhibition at 300 µg/disc ([2]; agent 0.3 mg per disc): 14 mm; zone of inhibition at 300 µg/disc ([5]; agent 0.3 mg per disc): 14 mm; MIC [9]: > 400 µg/mL; MIC [10]: > 400 µg/mL; MIC (E. coli 77 CMY-2(+)): > 400 µg/mL; MIC [11]: > 400 µg/mL; zone of inhibition at 300 µg/disc ([12]; agent 0.3 mg per disc): 21 mm |
| OB(O)c1cc(F)c(B(O)O)c(F)c1F [1f] | 0.24 | 0.21 | 200 (≈ 910 µM) | 50 (≈ 228 µM) | 17 | 50 (≈ 228 µM) | 17 | 400 (≈ 1820 µM) | 200 (≈ 910 µM) | 97.4 ± 2.2 | 89.9 ± 1.9 | 78.1 ± 0.9 | 0.43 | S (FICI ≤ 0.5, synergy) | S (FICI ≤ 0.5, synergy) | 0.27 | 13 | 100 (≈ 455 µM) | 100 | 100 | zone of inhibition at 100 µg/disc [2]: 6 mm; zone of inhibition at 0.4 mg/disc [4]: 16 mm; zone of inhibition at 100 µg/disc [5]: 15 mm; zone of inhibition at 0.4 mg/disc (C. krusei ATCC 6258; 0.4 mg per disc, 9 mm disc (fluconazole 0.025 mg, 6 mm disc), - no zone, read-out: Diameter of inhibition zone): 19 mm; MIC [9]: > 400 µg/mL; MIC [10]: 100 µg/mL; MIC (E. coli 77 CMY-2(+)): 100 µg/mL; MIC [11]: 100 µg/mL; zone of inhibition at 100 µg/disc [12]: 17 mm |
| OB(O)c1cc(F)c(F)c(B(O)O)c1 [2d] | 0.19 | 0.14 | 200 (≈ 991 µM) | 50 (≈ 248 µM) | 12 | 50 (≈ 248 µM) | 22 | 200 (≈ 991 µM) | 100 (≈ 496 µM) | 107 ± 7.6 | 88 ± 4.3 | 75.2 ± 9.4 | 0.35 | S (FICI ≤ 0.5, synergy) | S (FICI ≤ 0.5, synergy) | 0.26 | 15 | 400 (≈ 1980 µM) | 400 | 200 | zone of inhibition at 100 µg/disc [2]: 6 mm; zone of inhibition at 0.4 mg/disc (E. faecium ATCC 6057): 14 mm; zone of inhibition at 0.4 mg/disc (E. faecalis ATCC 29212): 14 mm; zone of inhibition at 0.4 mg/disc [4]: 19 mm; zone of inhibition at 100 µg/disc [5]: 13 mm; MIC [9]: > 400 µg/mL; MIC [10]: 400 µg/mL; MIC (E. coli 77 CMY-2(+)): 200 µg/mL; MIC [11]: 400 µg/mL; zone of inhibition at 100 µg/disc [12]: 18 mm |
| OB(O)c1ccc(B(O)O)c(F)c1F [1c] | 0.19 | 0.14 | 200 (≈ 991 µM) | 50 (≈ 248 µM) | 28 | 25 (≈ 124 µM) | 22 | 200 (≈ 991 µM) | 50 (≈ 248 µM) | 112 ± 3.8 | 103 ± 3 | 96.7 ± 3.3 | 0.32 | S (FICI ≤ 0.5, synergy) | S (FICI ≤ 0.5, synergy) | 0.17 | 28 | 400 (≈ 1980 µM) | 200 | 200 | zone of inhibition at 100 µg/disc [2]: 6 mm; zone of inhibition at 0.4 mg/disc (E. faecium ATCC 6057): 15 mm; zone of inhibition at 0.4 mg/disc (E. faecalis ATCC 29212): 16 mm; zone of inhibition at 0.4 mg/disc [4]: 22 mm; zone of inhibition at 100 µg/disc [5]: 14 mm; MIC [9]: 400 µg/mL; MIC [10]: 200 µg/mL; MIC (E. coli 77 CMY-2(+)): 200 µg/mL; MIC [11]: 200 µg/mL; zone of inhibition at 100 µg/disc [12]: 18 mm |

From PMC10648349, “Aromatic Diboronic Acids as Effective KPC/AmpC Inhibitors” (Molecules, 2023)
